Assay results as given in article PMC9516332 (Frontiers in Oncology, 2022).
Where two headings read alike, the source gives them in different places.

What was measured:
134 cancer cell lines = test: Cell viability assay (ATPlite, 72 hours), IC50 on cancer cell line panel
AP-1060 (ETV6-NTRK3) = test: Cell viability assay; settings: read-out: IC50 in cell proliferation assay

Q: For `CCCS(=O)(=O)Nc1ccc(F)c(C(=O)c2c[nH]c3ncc(-c4ccc(Cl)cc4)cc23)c1F` [vemurafenib], which IC50 (134 cancer cell lines; Homo sapiens, MOLT-4, read-out: IC50 in cell proliferation assay, MOLT-4 cell line) is on record?
A: Its IC50 is 30.6 µM.

Q: What about the IC50 (134 cancer cell lines; Homo sapiens, MV4-11, read-out: IC50 in cell proliferation assay, MV4-11 cell line (FLT3 ITD)) of the same compound?
A: The IC50 was 31.2 µM.

Q: What about the IC50 (134 cancer cell lines; Homo sapiens, MeWo, read-out: IC50 in cell proliferation assay, MeWo cell line) of the same compound?
A: The IC50 was > 31.6 µM.

Q: What about the IC50 (134 cancer cell lines; Homo sapiens, NCCIT, read-out: IC50 in cell proliferation assay, NCC-IT cell line) of the same compound?
A: The IC50 was 25.5 µM.

Q: What about the IC50 (134 cancer cell lines; Homo sapiens, NCI-H82, read-out: IC50 in cell proliferation assay, cell line NCI-H82) of the same compound?
A: The IC50 was 22.8 µM.

Q: What about the IC50 (134 cancer cell lines; Homo sapiens, NCI-H460, read-out: IC50 in cell proliferation assay, NCI-H460 cell line) of the same compound?
A: The IC50 was 26.9 µM.

Q: What about the IC50 (134 cancer cell lines; Homo sapiens, NCI-H661, read-out: IC50 in cell proliferation assay, NCI-H661 cell line) of the same compound?
A: The IC50 was > 31.6 µM.

Q: And the IC50 (134 cancer cell lines; Homo sapiens, NCI-H716, read-out: IC50 in cell proliferation assay, cell line NCI-H716 (FGFR2-COL14A1))?
A: The IC50 was > 31.6 µM.

Q: What about the IC50 (134 cancer cell lines; Homo sapiens, NCI-H1650, read-out: IC50 in cell proliferation assay, NCI-H1650 cell line (EGFR exon19del)) of the same compound?
A: Its IC50 is > 31.6 µM.

Q: What about the IC50 (134 cancer cell lines; Homo sapiens, NCI-H1975, read-out: IC50 in cell proliferation assay, NCI-H1975 cell line (EGFR p.L858R + p.T790M)) of the same compound?
A: Its IC50 is > 31.6 µM.

Q: And the IC50 (134 cancer cell lines; Homo sapiens, NCI-H2228, read-out: IC50 in cell proliferation assay, NCI-H2228 cell line (EML4-ALK))?
A: Its IC50 is > 31.6 µM.

Q: And the IC50 (134 cancer cell lines; Homo sapiens, OVCAR-3, read-out: IC50 in cell proliferation assay, cell line OVCAR-3)?
A: The IC50 was > 31.6 µM.

Q: And the IC50 (134 cancer cell lines; Homo sapiens, PFSK-1, read-out: IC50 in cell proliferation assay, cell line PFSK-1)?
A: Its IC50 is > 31.6 µM.

Q: What about the IC50 (134 cancer cell lines; Homo sapiens, RL95-2, read-out: IC50 in cell proliferation assay, cell line RL95-2 (EGFR p.A289V)) of the same compound?
A: Its IC50 is > 31.6 µM.

Q: What about the IC50 (134 cancer cell lines; Homo sapiens, RPMI-7951, read-out: IC50 in cell proliferation assay, cell line RPMI-7951 (BRAF p.V600E)) of the same compound?
A: Its IC50 is 15.7 µM.

Q: What about the IC50 (134 cancer cell lines; Homo sapiens, RS4-11, read-out: IC50 in cell proliferation assay, cell line RS4;11) of the same compound?
A: Its IC50 is > 31.6 µM.

Q: What about the IC50 (134 cancer cell lines; Homo sapiens, Rec1, read-out: IC50 in cell proliferation assay, cell line REC-1) of the same compound?
A: The IC50 was 8.15 µM.

Q: What about the IC50 (134 cancer cell lines; Homo sapiens, SHP77, read-out: IC50 in cell proliferation assay, cell line SHP-77) of the same compound?
A: The IC50 was > 31.6 µM.

Q: What about the IC50 (134 cancer cell lines; Homo sapiens, SK-BR-3, read-out: IC50 in cell proliferation assay, cell line SK-BR-3 (ERBB2 amplification)) of the same compound?
A: Its IC50 is > 31.6 µM.

Q: And the IC50 (134 cancer cell lines; Homo sapiens, SK-N-AS, read-out: IC50 in cell proliferation assay, cell line SK-N-AS)?
A: Its IC50 is > 31.6 µM.

Q: And the IC50 (134 cancer cell lines; Homo sapiens, SK-N-FI, read-out: IC50 in cell proliferation assay, cell line SK-N-FI)?
A: The IC50 was > 31.6 µM.

Q: And the IC50 (134 cancer cell lines; Homo sapiens, SK-N-MC, read-out: IC50 in cell proliferation assay, cell line SK-N-MC)?
A: Its IC50 is > 31.6 µM.

Q: What about the IC50 (134 cancer cell lines; Homo sapiens, SK-N-SH, read-out: IC50 in cell proliferation assay, cell line SK-N-SH (ALK p.F1174L)) of the same compound?
A: Its IC50 is > 31.6 µM.

Q: What about the IC50 (134 cancer cell lines; Homo sapiens, SNU-5, read-out: IC50 in cell proliferation assay, cell line SNU-5 (MET amplification)) of the same compound?
A: Its IC50 is 31.4 µM.

Q: What about the IC50 (134 cancer cell lines; Homo sapiens, SNU-16, read-out: IC50 in cell proliferation assay, cell line SNU-16 (FGFR2 amplification)) of the same compound?
A: Its IC50 is > 31.6 µM.

Q: What about the IC50 (134 cancer cell lines; Homo sapiens, SNU-C2B, read-out: IC50 in cell proliferation assay, cell line SNU-C2B (EGFR p.R165Q)) of the same compound?
A: The IC50 was > 31.6 µM.

Q: What about the IC50 (134 cancer cell lines; Homo sapiens, SU-DHL-1, read-out: IC50 in cell proliferation assay, cell line SU-DHL-1 (NPM1-ALK)) of the same compound?
A: Its IC50 is 23.5 µM.

Q: What about the IC50 (134 cancer cell lines; Homo sapiens, SU-DHL-6, read-out: IC50 in cell proliferation assay, cell line SU-DHL-6) of the same compound?
A: The IC50 was > 31.6 µM.

Q: And the IC50 (134 cancer cell lines; Homo sapiens, SUP-T1, read-out: IC50 in cell proliferation assay, cell line SUP-T1)?
A: Its IC50 is > 31.6 µM.

Q: What about the IC50 (134 cancer cell lines; Homo sapiens, SW48, read-out: IC50 in cell proliferation assay, cell line SW48 (EGFR p.G719S)) of the same compound?
A: Its IC50 is > 31.6 µM.

Q: What about the IC50 (134 cancer cell lines; Homo sapiens, SW480, read-out: IC50 in cell proliferation assay, cell line SW480) of the same compound?
A: Its IC50 is > 31.6 µM.

Q: What about the IC50 (134 cancer cell lines; Homo sapiens, SW626, read-out: IC50 in cell proliferation assay, cell line SW626) of the same compound?
A: The IC50 was > 31.6 µM.

Q: What about the IC50 (134 cancer cell lines; Homo sapiens, SW780, read-out: IC50 in cell proliferation assay, cell line SW780 (FGFR3-BAIAP2L1)) of the same compound?
A: Its IC50 is > 31.6 µM.

Q: And the IC50 (134 cancer cell lines; Homo sapiens, SW837, read-out: IC50 in cell proliferation assay, cell line SW837)?
A: Its IC50 is > 31.6 µM.

Q: And the IC50 (134 cancer cell lines; Homo sapiens, SW872, read-out: IC50 in cell proliferation assay, cell line SW872 (BRAF p.V600E))?
A: Its IC50 is 1.15 µM.

Q: What about the IC50 (134 cancer cell lines; Homo sapiens, SW900, read-out: IC50 in cell proliferation assay, cell line SW900) of the same compound?
A: Its IC50 is 26.7 µM.

Q: What about the IC50 (134 cancer cell lines; Homo sapiens, SW948, read-out: IC50 in cell proliferation assay, cell line SW948) of the same compound?
A: Its IC50 is > 31.6 µM.

Q: And the IC50 (134 cancer cell lines; Homo sapiens, SW982, read-out: IC50 in cell proliferation assay, cell line SW982 (BRAF p.V600E))?
A: Its IC50 is 22.3 µM.

Q: What about the IC50 (134 cancer cell lines; Homo sapiens, SW-620, read-out: IC50 in cell proliferation assay, cell line SW620) of the same compound?
A: The IC50 was > 31.6 µM.

Q: And the IC50 (134 cancer cell lines; Homo sapiens, T98G, read-out: IC50 in cell proliferation assay, cell line T98G)?
A: The IC50 was 19.1 µM.

Q: What about the IC50 (134 cancer cell lines; Homo sapiens, TCC-SUP, read-out: IC50 in cell proliferation assay, cell line TCCSUP) of the same compound?
A: Its IC50 is > 31.6 µM.

Q: And the IC50 (134 cancer cell lines; Homo sapiens, THP-1, read-out: IC50 in cell proliferation assay, cell line THP-1)?
A: The IC50 was > 31.6 µM.

Q: And the IC50 (134 cancer cell lines; Homo sapiens, U2OS, read-out: IC50 in cell proliferation assay, cell line U2OS)?
A: The IC50 was > 31.6 µM.

Q: And the IC50 (134 cancer cell lines; Homo sapiens, U-87 MG, read-out: IC50 in cell proliferation assay, cell line U-87MG ATCC)?
A: The IC50 was > 31.6 µM.

Q: And the IC50 (134 cancer cell lines; Homo sapiens, U-118-MG, read-out: IC50 in cell proliferation assay, cell line U-118MG)?
A: The IC50 was > 31.6 µM.

Q: What about the IC50 (134 cancer cell lines; Homo sapiens, UMUC3, read-out: IC50 in cell proliferation assay, cell line UM-UC-3) of the same compound?
A: Its IC50 is > 31.6 µM.

Q: What about the IC50 (134 cancer cell lines; Hs766T, read-out: IC50 in cell proliferation assay, Hs 766T cell line) of the same compound?
A: Its IC50 is > 31.6 µM.

Q: And the IC50 (134 cancer cell lines; L-82, read-out: IC50 in cell proliferation assay, L-82 cell line (NPM1-ALK))?
A: Its IC50 is 26.8 µM.

Q: What about the IC50 (134 cancer cell lines; Rh30, read-out: IC50 in cell proliferation assay, cell line Rh30) of the same compound?
A: Its IC50 is > 31.6 µM.

Q: What about the IC50 (134 cancer cell lines; read-out: IC50 in cell proliferation assay, 11-18 cell line (EGFR p.L858R)) of the same compound?
A: Its IC50 is > 31.6 µM.

Q: And the IC50 (134 cancer cell lines; read-out: IC50 in cell proliferation assay, Hs 852.T cell line)?
A: The IC50 was > 31.6 µM.

Q: And the IC50 (134 cancer cell lines; read-out: IC50 in cell proliferation assay, JAR cell line)?
A: The IC50 was 14.7 µM.

Q: What about the IC50 (134 cancer cell lines; read-out: IC50 in cell proliferation assay, cell line 5637) of the same compound?
A: The IC50 was 25.1 µM.

Q: What about the IC50 (134 cancer cell lines; read-out: IC50 in cell proliferation assay, cell line A-388) of the same compound?
A: Its IC50 is > 31.6 µM.

Q: What about the IC50 (134 cancer cell lines; read-out: IC50 in cell proliferation assay, cell line DB) of the same compound?
A: The IC50 was 24.5 µM.

Q: And the IC50 (134 cancer cell lines; read-out: IC50 in cell proliferation assay, cell line DEL (NPM1-ALK))?
A: Its IC50 is > 31.6 µM.

Q: And the IC50 (134 cancer cell lines; read-out: IC50 in cell proliferation assay, cell line ES-2 (BRAF p.V600E))?
A: Its IC50 is 2.33 µM.

Q: What about the IC50 (134 cancer cell lines; read-out: IC50 in cell proliferation assay, cell line PA-1) of the same compound?
A: Its IC50 is 15.7 µM.

Q: And the IC50 (134 cancer cell lines; read-out: IC50 in cell proliferation assay, cell line PC-3)?
A: Its IC50 is > 31.6 µM.

Q: And the IC50 (134 cancer cell lines; read-out: IC50 in cell proliferation assay, cell line RD)?
A: Its IC50 is > 31.6 µM.

Q: What about the IC50 (134 cancer cell lines; read-out: IC50 in cell proliferation assay, cell line RKO (BRAF p.V600E)) of the same compound?
A: Its IC50 is 3.08 µM.

Q: What about the IC50 (134 cancer cell lines; read-out: IC50 in cell proliferation assay, cell line RL) of the same compound?
A: The IC50 was 24.8 µM.

Q: What about the IC50 (134 cancer cell lines; read-out: IC50 in cell proliferation assay, cell line RT-4 (FGFR3-TACC3)) of the same compound?
A: The IC50 was > 31.6 µM.

Q: What about the IC50 (134 cancer cell lines; read-out: IC50 in cell proliferation assay, cell line T24) of the same compound?
A: The IC50 was 30.7 µM.

Q: What about the IC50 (134 cancer cell lines; read-out: IC50 in cell proliferation assay, cell line TT (RET p.C634W)) of the same compound?
A: The IC50 was > 31.6 µM.

Q: What about the IC50 (134 cancer cell lines; read-out: IC50 in cell proliferation assay, cell line VA-ES-BJ) of the same compound?
A: The IC50 was > 31.6 µM.

Q: And the IC50 (AP-1060 (ETV6-NTRK3))?
A: Its IC50 is 31.6 µM.
